Among the data in EP3318127A1, “COMPOSITIONS COMPRISING KHCO3” (BASF SE, priority 2013, dated 2015) are Observed efficacy values, retold here.

Holding throughout (assay type): cell-based
In one test the test system is Septoria tritici. Kind of test: Activity against leaf blotch on wheat caused by Septoria tritici (microtiter plate test). Particulars: 0.25 ppm; 7 days after inoculation, 405 nm.
A further test deals with Sclerotinia sclerotiorum. Kind of test: Activity against stem rot on wheat caused by Sclerotinia sclerotiorum (microtiter plate test). Particulars: 7 days after inoculation, 405 nm.
The subject of the next test is Pyricularia oryzae. Particulars: 4 ppm; 7 days after inoculation, 405 nm.
A further test deals with Botrytis cinerea. The test can be described thus: Activity against the grey mold Botrytis cinerea in the microtiterplate test. Particulars: 7 days after inoculation, 405 nm.

In the test with Septoria tritici, `O=C(Nc1ccccc1-c1ccc(Cl)cc1)c1cccnc1Cl` [Boscalid, 2-chloro-N-(4'-chlorobiphenyl-2-yl)-nicotinamide] returned an Observed efficacy of 40%.

`Cc1cc(C)nc(Nc2ccccc2)n1` [Pyrimethanil, 4,6-dimethylpyrimidin-2-ylphenylamine]: the Observed efficacy in the test with Sclerotinia sclerotiorum (1 ppm) turned out to be 20%; in the test with Sclerotinia sclerotiorum (4 ppm), 27%; in the test on Sclerotinia sclerotiorum (16 ppm) it was 49%; with Pyricularia oryzae, 37%; in the test with Botrytis cinerea (1 ppm), 39%; in the test on Botrytis cinerea (4 ppm), 60%.
